Values quoted from earlier work, collected in patent US7993683B2, “Compositions for the treatment of chronic degenerative inflammatory conditions” (Indena S.p.A., priority 2006, dated 2011).

Assays:
[1] = tested on: TNF-induced enhancement of endothelial monocyte adesion; settings: added to endothelial cell culture together with tumour necrosis factor (TNF)
[2] = tested on: pro-inflammatory cytokines

## C=C1CC[C@@H]2[C@](C)(CO)[C@H](O)CC[C@@]2(C)[C@@H]1C/C=C1/C(=O)OC[C@H]1O [andrographolide]
[1]
  TNF-induced enhancement of endothelial monocyte adesion: concentration depended reduction
[2]
  synthesis of pro-inflammatory cytokines: inhibits
